Laboratory results published in patent publication US20200255492A1, “LEPTIN PEPTIDES AND THEIR USE FOR TREATING NEUROLOGICAL DISORDERS” (UNIVERSITY OF DUNDEE, priority 2017, published 2020).

Columns and labels:
[1] = system: differentiated human neural cells (SH-SY5Y); experiment: LDH release assay (membrane leakage, cell death); type: cell-based; details: for reduction of LDH release compared with Aβ1-42 alone, hexamer study: n=11; for reduction of LDH release in Aβ1-42 treated cells: n=5; for reduction of LDH release compared with CuCl2 alone: 5 μM CuCl2
Protocol: (§1) The human neuroblastoma cell line, SH-SY5Y (ECACC, UK) was maintained in Dulbecco's Modified Eagle Medium supplemented with glucose ([…]) and 10% (v/v) cosmic calf serum (Fisher Scientific, UK) at 37° C. in a humidified atmosphere of 5% CO2, 95% air and allowed to reach 70-80% confluence before seeding. Cells (passage 10-18) were plated at 10 000 cells per well in 96 well tissue culture plates (Nunc, VWR, UK) and at a density of 2×10^5 cells in 35 mm dishes for protein extraction. To induce differentiation, cells were cultured in DMEM supplemented with glucose ([…]), 1% (v/v) cosmic calf serum and 10 μM retinoic acid for 5 days. Thereafter they were incubated in DMEM supplemented with glucose ([…]), serum replacement 2 (2%; Sigma, UK) and 18 μM 5-fluorodeoxyuridine to inhibit proliferation of undifferentiated cells. The 50% of the medium was changed every 2-3 days and pharmacological treatment was carried out 7 days after switching to this medium. Reagents used were (from Sigma UK unless stated) 0.1-10 nM human leptin and leptin (116-130); 0.1-10 nM leptin (22-56; Bachem; Switzerland); 10 nM leptin (116-121) leptin (117-122), leptin (124-129) or leptin (125-130; all Severn Biotech, UK); 5 μM copper chloride; […], 5 μM WP1066 or 50 nM wortmannin. All treatments were added to the culture at the same time and survival assays were carried out after 96 h treatment. Protein samples for signaling ELISA were extracted 3 h after exposure to the relevant reagents and for biomarker expression after 72 hours.
The concentration of lactate dehydrogenase (LDH) in the culture medium or the mitochondrial activity within cells was used to monitor the level of cell death, as previously (Oldreive and Doherty 2010). In certain experiments, a Crystal violet assay was used to assess total cell number. Cells were fixed in neutral buffered formalin and washed 3 times in PBS prior to staining with 0.01% crystal violet acetate for 5 min. Plates were washed 5-10 times in dH2O and cells solubilised in 100 μl dimethyl sulfoxide (DMSO) before reading the absorbance on a Biohit BP100 plate reader. For all assays, data is expressed as percentage relative to control, untreated wells to normalize for differences in plating density between individual experiments.
To determine whether leptin (116-130) has neuroprotective actions, the effects of leptin (116-130) on the viability of differentiated human neural cells (SH-SY5Y) was examined after exposure to either 5 μM CuCl2 or 10 μM Aβ1-42. Cells were treated with the toxin alone or with a range of concentrations (10-0.1 nM) of leptin or leptin (116-130). […] Thus like leptin, treatment with leptin (116-130) reduces neuronal death in response to AD-linked toxins in vitro.

[2] = system: phosphorylated tau (p-tau); experiment: ELISA of phosphorylated tau relative to α-tubulin; type: cell-based, human; details: 10 nM; n=5
Protocol: as §1
Protein from cultures was extracted into 500 μl Tris-buffered saline containing protease inhibitor cocktail, and a Bradford assay used to determine protein concentration. Samples were diluted to give equal loading onto ELISA plates. Commercially available ELISA kits were used in accordance with the manufacturer's instructions to determine the ratio of pan-STAT3 to phospho-STAT3 (Sigma, UK) and pan-Akt to phospho-Akt (Sigma, UK) and the levels of alpha-tubulin and phosphorylated tau (Sigma, UK). Each protein sample was run in duplicate using samples derived from at least 5 biological repeats.
Hyper-phosphorylation of tau is the underpinning mechanism of the development of neurofibrillary tangles—one of the key pathological feature of AD. Human SH-SY5Y neuronal cells were exposed to Aβ1-42 alone or in combination with 10 nM leptin, leptin (116-130), leptin (116-121), leptin (117-122), leptin (124-129) or leptin (125-130). Protein was extracted for ELISA assay and the ratio of p-tau to the house-keeping protein α-tubulin determined (FIG. 11C). […] Thus for Aβ1-42-treated cells, 10 nM leptin and 10 nM leptin (116-130) reduced p-tau expression by 56.2±8.0% and 58.9+4.6% respectively compared with Aβ1-42 alone (n=5; P<0.001; FIG. 11C); an effect that was mirrored by 10 nM leptin (116-121) and leptin (117-122); 58.1±4.0% and 45.48±6.1% (n=5; P<0.001 and P<0.01 respectively; FIG. 11C), but not by 10 nM leptin (124-129) or leptin (125-130)(n=5; P>0.5; FIG. 11C).

[3] = system: SH-SY5Y neuronal cultures; experiment: Thioflavin S staining of amyloid after seeding with Aβ1-42; type: cell-based, human; details: 96 hours after seeding with 1 μM Aβ1-42; leptin116-130 1 nM
Protocol: The human neuroblastoma cell line, SH-SY5Y (ECACC, UK) was maintained in Dulbecco's Modified Eagle Medium supplemented with glucose ([…]) and 10% (v/v) cosmic calf serum (Fisher Scientific, UK) at 37° C. in a humidified atmosphere of 5% CO2, 95% air and allowed to reach 70-80% confluence before seeding. Cells (passage 10-18) were plated at 2×10^5 cells on 13 mm borosilicate class coverslips or at 10 000 cells per well in 96 well tissue culture plates (Nunc, VWR, UK) prior to treatment. Reagents used were (from Sigma UK unless stated) 1 nM human leptin, leptin (116-121), leptin (117-122) and leptin (117-125); 0.0001-1 nm murine leptin fragments leptin (116-121), leptin (117-122) and leptin (116-130); 100 μM 6-hydroxydopamine; 10 μM CuCl2; […]
After 96 hours, cultures were fixed for 15 minutes in neutral buffered formalin, washed in phosphate buffered saline and stained with 0.05% Thioflavin S for 10 minutes prior to washing in phosphate buffered saline and mounting for visualisation on a fluorescent microscope. Relative fluorescent intensity per cell was determined using post hoc image analysis with Fiji software. Quantitative data is presented as the mean fluorescence per cell relative to control untreated cells.

Substance	increase in LDH release, Aβ1-42 alone ([1]; 10 μM Aβ1-42)	reduction of LDH release compared with Aβ1-42 alone, hexamer study ([1]; 10 nM, 10 μM Aβ1-42)	reduction of p-tau expression compared with Aβ1-42 alone [2]	thioflavin S fluorescent signal per cell (amyloid accumulation) [3]	reduction of LDH release in Aβ1-42 treated cells ([1]; 0.1 nM, 10 μM Aβ1-42)	reduction of LDH release compared with CuCl2 alone ([1]; 10 nM)	reduction of LDH release in Aβ1-42 treated cells ([1]; 10 nM, 10 μM Aβ1-42)	increase in LDH release with PI3-kinase inhibitor ([1]; leptin (116-130) and Aβ1-42-treated cells plus wortmannin (50 nM))	increase in LDH release with STAT3 inhibitor ([1]; leptin (116-130) and Aβ1-42-treated cultures plus WP1066 (5 μM))
Aβ1-42: amyloid beta 1-42, toxin used in the AD models [reference compound]	26.7±4.4%								
CSLPQT (listed as Mus musculus) [leptin (117-122)]		27.4±3.5%	45.48±6.1%	prevent the accumulation of amyloid beta					
leptin: the metabolic hormone leptin, whole (full length) leptin molecule; human leptin from Sigma in SH-SY5Y work		25.3±2.5%	56.2±8.0%		31.8±13.2%	39.5±2.73%	47.9±7.45%		
SCSLPQ (listed as Mus musculus) [leptin (116-121)]		27.1±3.1%	58.1±4.0%	prevent the accumulation of amyloid beta					
SCSLPQTSGLQKPES (listed as Mus musculus) [leptin (116-130)]		24.0 ± 2.2%	58.9 ± 4.6%	amyloid propagation following seeding is greatly reduced	26.7±17.3%	45.6±2.92%	46.6±9%	26.9±9.8%	18.3±3.2%
